Tests used:
[1] = test system: H358 human non-small cell lung cancer cells; test: Inhibition test of in vitro cell level phosphorylation activity (pERK); type: cell-based; settings: NCI-H358, ERK phosphorylation inhibition, compound 1 h
Protocol: Test Example 1 Inhibition Test of In Vitro Cell Level Phosphorylation Activity
1.2 Test Method for In Vitro Cell Level Phosphorylation Activity
A dish of H358 human non-small cell lung cancer cells (Nanjing Cobioer Biosciences Co., Ltd.) in logarithmic growth phase and good cell condition were added to a centrifuge tube and centrifuged at 1000 rpm for 5 min in a low speed benchtop centrifuge. The supernatant was discarded, and 5 mL of a plating medium containing 5% FBS was added using a pipette for cell resuspension. The cell suspension was loaded on a cell counter for counting, and diluted with the plating medium to adjust the cell density to 1.5×10^5 cells/mL. The cells were seeded on a black clear-bottom 384-well plate at 40 μL/well using a multi-channel pipette, and cultured overnight in a cell incubator at 37° C., 5% CO2 and saturated humidity. […] The medium was discarded after 1 h, 40 μL, of 4% polyoxymethylene was added to each well, and the plate was incubated for 20 min at room temperature and washed with PBS. […] 20 μL of 5% BSA blocking buffer was added to each well, and the blocking buffer was discarded after the plate was blocked for 1 h at room temperature. 20 μL of the primary antibody mixed solution was added to each well, wherein Rabbit anti-pERK was diluted at 1:1000 (final concentration) and mouse anti-GAPDH was diluted at 1:5000 (final concentration), and the plate was incubated overnight at 4° C. and washed with PBST. 20 μL of the secondary antibody mixed solution was added to each well, wherein goat anti rabbit 800 and goat anti mouse 647 were both diluted at 1:1000 (final concentration), and the plate was incubated in the dark at room temperature for 45 min and washed with PBST.

K562 cells = test: Assay for proliferation inhibitory activity of K562 cells; type: cell-based; settings: Homo sapiens, 72 h, CCK-8, read-out: K562 cell proliferation inhibition IC50
Protocol: Test Example 4 Assay for Proliferation Inhibitory Activity of K562 Cells
The K562 cell line can be purchased from the American Type Culture Collection (ATCC).
The K562 cells in a good growth state were added to a centrifuge tube with the cell density adjusted to 3×10^4/mL, and seeded on a 96-well plate (100 μL/well). The cells were cultured overnight in a cell incubator, the compound was loaded using a nanoliter pipettor to allow the final compound concentration to be 10000 nM to 4.6 nM, 2 replicate wells were set and control was set.

KRAS-G12C/SOS1 = molecular target: T1, KRAS-G12C/SOS1 (Homo sapiens, UniProt Q07889); test: biochemical
T1 sequence (Q07889 564-1049): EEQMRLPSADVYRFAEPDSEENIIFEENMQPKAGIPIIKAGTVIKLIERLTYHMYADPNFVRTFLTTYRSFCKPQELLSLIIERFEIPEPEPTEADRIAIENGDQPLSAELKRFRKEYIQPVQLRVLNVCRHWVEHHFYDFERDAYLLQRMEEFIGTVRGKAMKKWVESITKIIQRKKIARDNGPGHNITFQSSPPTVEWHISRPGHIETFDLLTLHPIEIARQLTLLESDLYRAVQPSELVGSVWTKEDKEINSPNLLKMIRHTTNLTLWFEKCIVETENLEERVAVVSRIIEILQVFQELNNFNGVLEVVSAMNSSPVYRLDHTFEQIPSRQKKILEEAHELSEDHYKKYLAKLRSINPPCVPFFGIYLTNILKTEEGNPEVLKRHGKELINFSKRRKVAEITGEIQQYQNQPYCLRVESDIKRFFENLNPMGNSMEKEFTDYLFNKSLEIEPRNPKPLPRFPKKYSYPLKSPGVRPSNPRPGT

SOS1cat / KRAS G12C = molecular target: T2, SOS1cat / KRAS G12C (Homo sapiens, UniProt Q07889); test: Guanine nucleotide exchange test (HTRF); type: biochemical; settings: SOS1cat-mediated loading of EDA-GTP-DY-647P1 on His-KRAS G12C, 20° C.; read-out: Nucleotide conversion of HTRF IC50
T2 sequence (Q07889 564-1049): T1 sequence (Q07889 564-1049)
Protocol: Test Example 2 Guanine Nucleotide Exchange Test
This test quantitatively investigates the ability of SOS to mediate KRAS activation. KRAS G12C with a His tag was added to the system, anti-His antibody labeled with lanthanide Eu was combined with the system, then auxiliary protein SOS1cat and GTP analogue EDA-GTP-DY-647P1 with fluorophore were added thereto, the GTP analogue with fluorophore was loaded on KRAS G12C with the assistance of the auxiliary protein, and then energy resonance transfer occurred between Anti-6HS-Cryptate (FRET donor) and EDA-GTP-DY-647P1 (FRET acceptor).
However, after pretreatment with SOS1 inhibitor compounds, the ability of SOS1 to bind and mediate KRAS activation was weakened, and the ability of FRET between donor and acceptor was weakened.
Test buffer was prepared with the following components: HEPES pH 7.4: 20 mM; NaCl: 150 mM; MgCl2: 0.5 mM; DTT: 2 mM; BSA: 0.05%; and Igepal: 0.0025%.
KRAS G12C working solution, SOS1cat working solution and blank control solution were prepared with the test buffers; wherein the KRAS G12C working solution contained 100 nM His-KRAS G12C and 2 nM […]; the SOS1cat working solution contained 20 nM SOS1cat and 200 nM EDA-GTP-DY-647P1; and the blank control solution contained 100 nM EDA-GTP-DY-647P1.
The whole test procedures were completed at 20° C.

COc1cc2nc(C)nc(N[C@H](C)c3cccc(C(F)F)c3C)c2cc1P1(=O)CCN(C(C)=O)CC1 [Example 12]
EC50 [1]: 103 nM

COc1cc2nc(C)nc(N[C@H](C)c3cccc(C(F)F)c3C)c2cc1P1(=O)CCN(C(=O)C2CC2)CC1 [Example 14]
EC50 [1]: 108 nM

COc1cc2nc(C)nc(N[C@H](C)c3cccc(C(C)(F)F)c3F)c2cc1P1(=O)CCN(C(C)=O)CC1 [Example 15]
EC50 [1]: 148 nM

COc1cc2nc(C)nc(N[C@H](C)c3cccc(C(C)(F)F)c3F)c2cc1P1(=O)CCN(C(=O)C2CC2)CC1 [Example 17]
EC50 [1]: 82 nM

COc1cc2nc(C)nc(N[C@H](C)c3cc(N)cc(C(F)(F)F)c3C)c2cc1P1(=O)CCN(C(C)=O)CC1 [Example 18]
EC50 [1]: 71 nM

Cc1nc(N[C@H](C)c2cccc(C(F)F)c2F)c2cc(P3(=O)CCN(S(C)(=O)=O)CC3)ncc2n1 [Example 20]
IC50 (K562 cells): 292 nM
IC50 (KRAS-G12C/SOS1): 78 nM
IC50 (SOS1cat / KRAS G12C): 482 nM

Cc1nc(N[C@H](C)c2cccc(C(F)F)c2F)c2cc(P3(=O)CCN(S(=O)(=O)C4CC4)CC3)ncc2n1 [Example 21]
IC50 (K562 cells): 187 nM
IC50 (KRAS-G12C/SOS1): 58 nM
IC50 (SOS1cat / KRAS G12C): 481 nM

Cc1nc(N[C@H](C)c2cccc(C(F)F)c2F)c2cc(P3(=O)CCN(S(C)(=O)=O)CC3)ccc2n1 [Example 27]
IC50 (K562 cells): 469 nM
IC50 (KRAS-G12C/SOS1): 61 nM
IC50 (SOS1cat / KRAS G12C): 542 nM

Cc1nc(N[C@H](C)c2cccc(C(F)(F)F)c2F)c2cc(P3(=O)CCCCC3)ncc2n1 [Example 42]
IC50 (K562 cells): 562 nM
IC50 (KRAS-G12C/SOS1): 81 nM
IC50 (SOS1cat / KRAS G12C): 572 nM

Cc1nc(N[C@H](C)c2cccc(C(F)(F)F)c2F)c2cc(P3(=O)CCCC3)ncc2n1 [Example 43]
IC50 (K562 cells): 1070 nM
IC50 (KRAS-G12C/SOS1): 215 nM
IC50 (SOS1cat / KRAS G12C): 717 nM

COc1cc2nc(C)nc(N[C@H](C)c3cc(N)cc(C(F)F)c3)c2cc1P1(=O)CCCCC1 [Example 65]
IC50 (K562 cells): 433 nM
IC50 (KRAS-G12C/SOS1): 56 nM
IC50 (SOS1cat / KRAS G12C): 482 nM

Reference: patent publication US12565511B2, “SOS1 inhibitor containing phosphorus” (Chia Tai Tianqing Pharmaceutical Group Co., Ltd., priority 2020, dated 2026)
